This passage reports IC50 results from publication PMC4926077, “Synthesis of Pelorol and Its Analogs and Their Inhibitory Effects on Phosphatidylinositol 3-Kinase” (Marine Drugs, 2016).

Each structure is given as a SMILES string. pIC50: −log10 of the molar value. Where two headings read alike, the source gives them in different places.

Experiment [1] has as its system U937. The experiment in a line: Antiproliferative CCK8 assay, U937. In kind it is cell-based. To be noted: Homo sapiens, U-937, leukemia cell, 72 h incubation, average of three replicates, read-out: Relative IC50 against tumor cell line U937. Here is the method:
(§1) The following cell lines, MCF-7, SK-BR-3, K562, Hela, MOLT-4, DU145, U937, and PC3 were purchased from Shanghai Cell Bank, Chinese Academy of Sciences. The cells were maintained at 37 °C in a 5% CO2 incubator in DMEM (Gibco, Invitrogen, Carlsbad, CA, USA) or RPMI1640 (Gibco, Invitrogen) containing 10% FBS. Cell proliferation was determined by CCK8 assay (DOjinDo, Kyoto, Japan). Cells were seeded at a density of 800–1000 cells/well in 384 well plates and treated with solvent control or various concentration of compounds. After 72 h incubation, CCK8 reagent was added and absorbance was measured at 450 nm by using Envision 2104 multi-label Reader (Perkin Elmer, Waltham, MA, USA). Dose-response curves were plotted to determine the IC50 values using Prism 5.0 (Graph Pad software Inc., San Diego, CA, USA).
(In general: Tetrazolium assays rely on reduction of a dye to a coloured formazan, in cell work by metabolically active cells.)

Experiment [2] deals with PI3Kα (Homo sapiens, UniProt P42336). The experiment in a line: PI3K enzymatic activity assay (Kinase-Glo), PI3Kα. The format is biochemical. Here is the method:
(§2) We assumed that electronic effects might influence the inhibitory activity of compounds against PI3Kα. […] PI3K reactions were performed in 50 mM HEPES at pH 7.5 with 1 mM EGTA, 100 mM NaCl, 3 mM MgCl2, 2 mM DTT, and 0.03% CHAPS. All tested compounds were dissolved in 100% DMSO. PIP2 and ATP were used as substrates, and the final reaction volume was 10 μL. […] After incubating for 1 h at room temperature, the reactions were quenched by adding 10 μL of Kinase-Glo reagent. Raw data were collected from Flexstation program.
In general terms: Kinase-Glo measures the ATP left after a reaction by luminescence.

Experiment [3] deals with K562. The experiment in a line: Antiproliferative CCK8 assay, K562. As to conditions: Homo sapiens, 72 h incubation, average of three replicates, read-out: Relative IC50 against tumor cell line K562. The format is cell-based. Here is the method: as §1
Experiment [4] relates to MCF-7. The experiment in a line: Antiproliferative CCK8 assay, MCF-7. To be noted: Homo sapiens, MCF7, 72 h incubation, average of three replicates, read-out: Relative IC50 against tumor cell line MCF-7. In kind it is cell-based. How it is done:
as §1

Experiment [5] has as its system MOLT-4. The experiment in a line: Antiproliferative CCK8 assay, MOLT-4. In kind it is cell-based. As to conditions: Homo sapiens, leukemia cell, 72 h incubation, average of three replicates, read-out: Relative IC50 against tumor cell line MOLT-4. Here is the method: as §1
For experiment [6], the system named is SK-BR-3. The experiment in a line: Antiproliferative CCK8 assay, SK-BR-3. As to conditions: Homo sapiens, 72 h incubation, average of three replicates, read-out: Relative IC50 against tumor cell line SK-BR-3. The format is cell-based. How it is done:
as §1

In experiment [7] the test system is DU145. The experiment in a line: Antiproliferative CCK8 assay, DU145. The format is cell-based. To be noted: Homo sapiens, DU-145, prostate cancer cell, 72 h incubation, average of three replicates, read-out: Relative IC50 against tumor cell line DU145. How it is done: as §1
Experiment [8] deals with PC3. The experiment in a line: Antiproliferative CCK8 assay, PC3. In kind it is cell-based. To be noted: Homo sapiens, PC-3, 72 h incubation, average of three replicates, read-out: Relative IC50 against tumor cell line PC3. How it is done:
as §1

Experiment [9] relates to Hela. The experiment in a line: Antiproliferative CCK8 assay, Hela. In kind it is cell-based. As to conditions: Homo sapiens, 72 h incubation, average of three replicates, read-out: Relative IC50 against tumor cell line Hela. Here is the method: as §1
Experiment [10] concerns the target PI3Kβ (Homo sapiens, UniProt P42338). The experiment in a line: PI3K enzymatic activity assay, PI3Kβ. The format is biochemical. How it is done: as §2
For experiment [11], the target named is PI3Kδ (Homo sapiens, UniProt O00329). The experiment in a line: PI3K enzymatic activity assay, PI3Kδ. The format is biochemical. How it is done: as §2
Sequence of PI3Kδ (O00329 whole entry, species assumed): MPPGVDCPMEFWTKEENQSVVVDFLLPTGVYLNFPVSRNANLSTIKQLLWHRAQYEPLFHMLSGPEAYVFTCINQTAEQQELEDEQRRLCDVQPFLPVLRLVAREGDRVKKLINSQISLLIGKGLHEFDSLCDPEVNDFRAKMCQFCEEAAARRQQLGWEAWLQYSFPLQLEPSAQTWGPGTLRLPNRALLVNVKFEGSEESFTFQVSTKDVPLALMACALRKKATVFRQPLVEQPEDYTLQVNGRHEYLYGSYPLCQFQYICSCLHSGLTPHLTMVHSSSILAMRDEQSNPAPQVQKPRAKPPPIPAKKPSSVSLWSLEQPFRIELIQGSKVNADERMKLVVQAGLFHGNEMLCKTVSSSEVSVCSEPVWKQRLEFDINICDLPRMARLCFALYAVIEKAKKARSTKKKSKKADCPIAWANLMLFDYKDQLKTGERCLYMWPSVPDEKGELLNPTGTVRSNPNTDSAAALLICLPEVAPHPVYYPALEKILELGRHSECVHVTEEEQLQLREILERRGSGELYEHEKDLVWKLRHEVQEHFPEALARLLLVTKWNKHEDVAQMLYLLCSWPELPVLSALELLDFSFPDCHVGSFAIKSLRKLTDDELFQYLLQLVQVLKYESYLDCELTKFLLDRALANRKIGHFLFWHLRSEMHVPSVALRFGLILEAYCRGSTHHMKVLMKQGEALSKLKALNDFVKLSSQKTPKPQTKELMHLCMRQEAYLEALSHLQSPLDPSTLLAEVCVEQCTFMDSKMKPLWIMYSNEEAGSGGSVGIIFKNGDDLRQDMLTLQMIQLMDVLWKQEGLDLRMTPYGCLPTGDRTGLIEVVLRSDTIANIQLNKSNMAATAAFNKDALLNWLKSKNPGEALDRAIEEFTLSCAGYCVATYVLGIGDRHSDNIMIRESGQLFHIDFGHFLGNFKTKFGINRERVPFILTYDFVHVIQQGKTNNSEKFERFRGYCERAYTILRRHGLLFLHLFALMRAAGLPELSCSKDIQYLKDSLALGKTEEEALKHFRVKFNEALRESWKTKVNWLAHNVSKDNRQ
Sequence of PI3Kδ (P27986 whole entry partner, species assumed): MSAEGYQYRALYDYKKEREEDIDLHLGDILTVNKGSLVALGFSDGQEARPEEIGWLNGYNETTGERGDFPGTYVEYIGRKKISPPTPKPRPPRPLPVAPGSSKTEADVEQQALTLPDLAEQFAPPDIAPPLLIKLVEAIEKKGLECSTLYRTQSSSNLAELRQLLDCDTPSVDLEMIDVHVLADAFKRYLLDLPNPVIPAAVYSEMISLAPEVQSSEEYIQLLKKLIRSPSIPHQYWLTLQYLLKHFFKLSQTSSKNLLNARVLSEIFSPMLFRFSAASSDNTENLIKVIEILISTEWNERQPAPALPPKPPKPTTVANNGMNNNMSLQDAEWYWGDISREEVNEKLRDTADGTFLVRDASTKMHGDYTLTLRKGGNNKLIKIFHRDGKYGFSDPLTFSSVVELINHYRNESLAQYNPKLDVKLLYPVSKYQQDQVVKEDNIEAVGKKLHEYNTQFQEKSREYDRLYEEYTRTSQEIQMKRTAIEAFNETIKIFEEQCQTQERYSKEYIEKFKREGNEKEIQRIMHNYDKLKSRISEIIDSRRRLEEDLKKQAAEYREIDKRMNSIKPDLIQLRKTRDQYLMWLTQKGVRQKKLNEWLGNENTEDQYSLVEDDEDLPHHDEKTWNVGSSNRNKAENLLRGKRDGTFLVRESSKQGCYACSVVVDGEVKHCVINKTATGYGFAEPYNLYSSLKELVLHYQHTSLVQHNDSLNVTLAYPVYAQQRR
The target in experiment [12] is PI3Kγ (Homo sapiens, UniProt P48736). The experiment in a line: PI3K enzymatic activity assay, PI3Kγ. The format is biochemical. How it is done: as §2
Sequence of PI3Kγ (P48736 whole entry, species assumed): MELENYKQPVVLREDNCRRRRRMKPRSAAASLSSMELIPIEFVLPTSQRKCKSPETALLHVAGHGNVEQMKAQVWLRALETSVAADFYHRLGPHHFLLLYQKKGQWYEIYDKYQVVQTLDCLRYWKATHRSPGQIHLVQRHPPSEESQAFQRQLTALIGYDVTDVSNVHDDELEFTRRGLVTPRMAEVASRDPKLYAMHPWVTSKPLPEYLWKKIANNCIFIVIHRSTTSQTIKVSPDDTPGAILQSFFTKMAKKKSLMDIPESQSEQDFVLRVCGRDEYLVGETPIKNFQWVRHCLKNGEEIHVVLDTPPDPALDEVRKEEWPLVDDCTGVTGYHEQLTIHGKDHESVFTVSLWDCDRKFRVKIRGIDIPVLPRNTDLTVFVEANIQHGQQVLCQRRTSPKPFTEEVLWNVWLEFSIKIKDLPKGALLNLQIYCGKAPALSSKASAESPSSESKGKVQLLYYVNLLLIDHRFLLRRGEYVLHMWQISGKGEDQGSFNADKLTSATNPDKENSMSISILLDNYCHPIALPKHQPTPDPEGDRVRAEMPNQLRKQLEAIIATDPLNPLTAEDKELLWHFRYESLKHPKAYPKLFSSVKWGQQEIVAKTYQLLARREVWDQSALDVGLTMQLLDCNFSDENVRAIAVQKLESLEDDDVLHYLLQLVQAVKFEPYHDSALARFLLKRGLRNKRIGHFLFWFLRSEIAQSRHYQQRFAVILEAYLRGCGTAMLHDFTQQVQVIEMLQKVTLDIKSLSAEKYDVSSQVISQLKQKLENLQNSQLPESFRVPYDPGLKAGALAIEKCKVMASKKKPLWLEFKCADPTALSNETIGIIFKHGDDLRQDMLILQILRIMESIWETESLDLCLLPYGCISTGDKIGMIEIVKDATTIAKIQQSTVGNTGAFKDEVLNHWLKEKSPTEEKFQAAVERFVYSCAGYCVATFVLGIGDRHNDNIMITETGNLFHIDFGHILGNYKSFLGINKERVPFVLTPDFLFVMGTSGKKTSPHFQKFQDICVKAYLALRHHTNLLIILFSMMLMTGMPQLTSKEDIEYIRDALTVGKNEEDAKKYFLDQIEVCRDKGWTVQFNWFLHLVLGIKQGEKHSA
Setting [13] is: average of three replicates, 25 μM ATP, 50 μM PIP2, 1 h, room temperature, read-out: IC50, inhibition against PI3Kα.

Sequence of PI3Kα (P42336 whole entry, species assumed): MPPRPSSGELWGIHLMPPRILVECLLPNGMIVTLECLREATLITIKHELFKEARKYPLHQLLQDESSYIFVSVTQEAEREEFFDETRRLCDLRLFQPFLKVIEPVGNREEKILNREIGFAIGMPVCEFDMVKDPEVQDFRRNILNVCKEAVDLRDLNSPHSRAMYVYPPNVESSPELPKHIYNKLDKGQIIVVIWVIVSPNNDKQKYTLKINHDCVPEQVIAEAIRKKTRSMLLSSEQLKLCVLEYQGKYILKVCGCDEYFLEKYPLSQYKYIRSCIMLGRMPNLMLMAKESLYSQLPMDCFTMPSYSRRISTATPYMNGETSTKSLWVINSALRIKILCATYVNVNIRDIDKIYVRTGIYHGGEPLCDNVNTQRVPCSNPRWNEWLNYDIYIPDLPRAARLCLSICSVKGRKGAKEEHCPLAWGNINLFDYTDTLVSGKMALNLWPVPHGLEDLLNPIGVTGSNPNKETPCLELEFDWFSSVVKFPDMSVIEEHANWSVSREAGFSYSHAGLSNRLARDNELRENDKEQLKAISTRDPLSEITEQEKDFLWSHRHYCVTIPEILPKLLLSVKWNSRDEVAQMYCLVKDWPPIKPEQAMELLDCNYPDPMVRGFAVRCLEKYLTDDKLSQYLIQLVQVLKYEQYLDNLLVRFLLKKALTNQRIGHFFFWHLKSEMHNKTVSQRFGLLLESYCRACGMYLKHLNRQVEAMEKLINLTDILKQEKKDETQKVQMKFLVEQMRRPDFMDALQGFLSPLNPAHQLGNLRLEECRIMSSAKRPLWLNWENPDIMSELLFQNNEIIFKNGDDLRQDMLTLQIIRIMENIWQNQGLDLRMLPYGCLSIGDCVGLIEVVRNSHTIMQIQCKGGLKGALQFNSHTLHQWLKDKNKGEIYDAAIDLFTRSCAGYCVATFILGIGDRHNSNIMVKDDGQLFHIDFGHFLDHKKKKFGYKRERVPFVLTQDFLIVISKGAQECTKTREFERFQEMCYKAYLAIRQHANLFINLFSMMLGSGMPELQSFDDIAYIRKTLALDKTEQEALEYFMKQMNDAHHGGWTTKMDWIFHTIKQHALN
Sequence of PI3Kα (P27986 whole entry partner, species assumed): as the sequence (P27986 whole entry partner, species assumed) above
Sequence of PI3Kβ (P42338 whole entry, species assumed): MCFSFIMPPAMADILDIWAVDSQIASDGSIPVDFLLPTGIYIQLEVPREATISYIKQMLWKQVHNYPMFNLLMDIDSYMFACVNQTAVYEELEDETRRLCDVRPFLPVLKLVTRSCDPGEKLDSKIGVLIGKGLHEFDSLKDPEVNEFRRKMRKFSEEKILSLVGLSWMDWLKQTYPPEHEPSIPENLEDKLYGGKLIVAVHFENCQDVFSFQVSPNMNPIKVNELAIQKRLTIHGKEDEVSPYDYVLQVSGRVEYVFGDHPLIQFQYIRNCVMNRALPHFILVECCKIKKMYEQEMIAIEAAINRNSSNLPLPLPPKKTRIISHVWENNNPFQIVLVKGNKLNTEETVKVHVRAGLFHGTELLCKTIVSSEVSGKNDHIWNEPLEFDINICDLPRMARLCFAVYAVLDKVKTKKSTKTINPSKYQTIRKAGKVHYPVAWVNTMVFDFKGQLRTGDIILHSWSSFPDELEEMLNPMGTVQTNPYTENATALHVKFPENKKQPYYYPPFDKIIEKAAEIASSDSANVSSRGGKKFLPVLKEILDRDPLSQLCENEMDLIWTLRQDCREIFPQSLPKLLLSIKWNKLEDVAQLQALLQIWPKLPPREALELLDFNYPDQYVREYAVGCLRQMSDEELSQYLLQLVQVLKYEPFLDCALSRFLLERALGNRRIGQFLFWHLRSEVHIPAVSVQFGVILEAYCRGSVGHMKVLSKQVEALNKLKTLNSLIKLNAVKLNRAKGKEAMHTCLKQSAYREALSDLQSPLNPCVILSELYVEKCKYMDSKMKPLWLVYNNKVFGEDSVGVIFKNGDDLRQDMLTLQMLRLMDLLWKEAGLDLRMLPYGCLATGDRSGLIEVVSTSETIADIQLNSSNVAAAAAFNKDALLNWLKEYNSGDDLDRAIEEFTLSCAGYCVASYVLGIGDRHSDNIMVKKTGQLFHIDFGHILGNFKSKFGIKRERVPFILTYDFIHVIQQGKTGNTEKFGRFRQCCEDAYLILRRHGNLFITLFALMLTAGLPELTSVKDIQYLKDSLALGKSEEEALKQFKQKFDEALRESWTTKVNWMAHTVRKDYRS
Sequence of PI3Kβ (P27986 whole entry partner, species assumed): as the sequence (P27986 whole entry partner, species assumed) above

Broadly, the pIC50 is the IC50 on a negative log10 scale, so that one unit is a factor of ten. `COC(=O)c1cc(O)c(O)c2c1[C@]1(C)CC[C@H]3C(C)(C)CCC[C@]3(C)[C@H]1C2` [Compound 1, Pelorol]: the negative-log IC50 (pIC50) in experiment [1] was under 4.52; in experiment [2], 4.42; in [3], under 4.52; in [4] it was under 4.52; in experiment [5] it was under 4.52; in [6], under 4.52. Moreover, the negative logarithm of the IC50 (pIC50) was 4.14 in experiment [7], under 4.52 in [8] and under 4.52 in experiment [9].
Regarding `CC1(C)CCC[C@]2(C)[C@H]3Cc4c(O)c(O)cc(C(=O)O)c4[C@]3(C)CC[C@@H]12` [Compound 2, (4aS,6aR,11aR,11bS)-9,10-diHydroxy-4,4,6a,11b-tetramethyl-2,3,4,4a,5,6,6a,11,11a,11b-decahydro-1H-benzo[a]fluorene-7-carboxylic acid], the pIC50 in experiment [2] (setting [13]) was 4.68; in experiment [3], under 4.52; in experiment [4], under 4.52; in experiment [7], under 4.52; in [8] it was under 4.52.
On to `CC(=O)c1cc(O)c(O)c2c1[C@]1(C)CC[C@H]3C(C)(C)CCC[C@]3(C)[C@H]1C2` [Compound 3, 1-((4aS,6aR,11aR,11bS)-9,10-diHydroxy-4,4,6a,11b-tetramethyl-2,3,4,4a,5,6,6a,11,11a,11b-decahydro-1H-benzo[a]fluoren-7-yl)ethanone], for which the pIC50 was under 4.52 in experiment [1]; 5.06 in experiment [2] (setting [13]); under 4.52 in [3]; under 4.52 in experiment [4]; 4.65 in experiment [5]; under 4.52 in [6]. Further, the negative logarithm of the IC50 (pIC50) in [7], in experiment [8] and in experiment [9] was under 4.52 in each case.
On to `CCc1cc(O)c(O)c2c1[C@]1(C)CC[C@H]3C(C)(C)CCC[C@]3(C)[C@H]1C2` [Compound 4, (4aS,6aR,11aR,11bS)-7-Ethyl-4,4,6a,11b-tetramethyl-2,3,4,4a,5,6,6a,11,11a,11b-decahydro-1H-benzo [a]fluorene-9,10-diol], for which the negative-log IC50 (pIC50) was under 4.52 in experiment [1]; 4.08 in experiment [2] (setting [13]); under 4.52 in experiment [3]; under 4.52 in experiment [4]; under 4.52 in experiment [5]; under 4.52 in experiment [6]. Besides, the pIC50 in experiment [7], in experiment [8] and in [9] was under 4.52 in each case.
On to `CC1(C)CCC[C@]2(C)[C@H]3Cc4c(O)c(O)cc(C=O)c4[C@]3(C)CC[C@@H]12` [Compound 5, (4aS,6aR,11aR,11bS)-9,10-diHydroxy-4,4,6a,11b-tetramethyl-2,3,4,4a,5,6,6a,11,11a,11b-decahydro-1H-benzo[a]fluorene-7-carbaldehyde], for which the pIC50 in experiment [10] is 5.05; in experiment [1], 5.22; in [2] (setting [13]) it was 5.30; in [11], under 4.00; in [3] it was 4.79; in [4], 4.41. Moreover, the pIC50 in experiment [5] was 5.37; in experiment [6], 4.72; in experiment [12] it was under 4.00; in experiment [7], 5.05; in [8], 4.74; in experiment [9], 4.88.
On to `CC1(C)CCC[C@]2(C)[C@H]3Cc4c(O)c(O)cc(C#N)c4[C@]3(C)CC[C@@H]12` [Compound 6, (4aS,6aR,11aR,11bS)-9,10-diHydroxy-4,4,6a,11b-tetramethyl-2,3,4,4a,5,6,6a,11,11a,11b-decahydro-1H-benzo[a]fluorene-7-carbonitrile], for which the negative-log IC50 (pIC50) is 4.89 in [1]; 4.31 in experiment [2] (setting [13]); under 4.52 in experiment [3]; 4.78 in [4]; 5.54 in experiment [5]; under 4.52 in experiment [6]. Also, the pIC50 in experiment [7] is 5.09; in [8], under 4.52; in experiment [9], 4.92.
Take `CCc1cc(OC)c(OC)c2c1[C@]1(C)CC[C@H]3C(C)(C)CCC[C@]3(C)[C@H]1C2` [Compound 20, (4aS,6aR,11aR,11bS)-7-Ethyl-9,10-diMethoxy-4,4,6a,11b-tetramethyl-2,3,4,4a,5,6,6a,11,11a,11b-decahydro-1H-benzo[a]fluorene]: the negative logarithm of the IC50 (pIC50) in experiment [2] (setting [13]) is under 4.00.
